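How tested: cells in 96-well plates exposed to compound for 48 hours at five concentrations. The concentration for 50% growth inhibition is given as GI50. TGI denotes the concentration required for complete inhibition of growth.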
Assays:
Experiment in all cases: NCI tumour cell line growth inhibition, 48 h
CAKI-1 renal = system: CAKI-1 renal
786-0 renal = system: 786-0 renal
OVCAR-4 ovarian = system: OVCAR-4 ovarian
CCRF-CEM leukemia = system: CCRF-CEM leukemia
UACC-257 melanoma = system: UACC-257 melanoma
HT29 colon = system: HT29 colon
RPMI-8226 leukemia = system: RPMI-8226 leukemia
A549 NSCLC = system: A549 NSCLC
SF-268 CNS = system: SF-268 CNS
MDA-MB-231 breast = system: MDA-MB-231 breast
U251 CNS = system: U251 CNS
RXF 393 renal = system: RXF 393 renal
HCC-2998 colon = system: HCC-2998 colon
KM12 colon = system: KM12 colon
SW-620 colon = system: SW-620 colon
MDA-MB-435 = system: MDA-MB-435
NCI-H226 lung = system: NCI-H226 lung
MOLT-4 leukemia = system: MOLT-4 leukemia
MCF7 breast = system: MCF7 breast
NCI-H522 lung = system: NCI-H522 lung
ACHN renal = system: ACHN renal
LOX IMVI melanoma = system: LOX IMVI melanoma
SK-OV-3 ovarian = system: SK-OV-3 ovarian
TK-10 renal = system: TK-10 renal
SNB-19 CNS = system: SNB-19 CNS
NCI-H23 lung = system: NCI-H23 lung
HCT-116 colon = system: HCT-116 colon
T-47D breast = system: T-47D breast
HS 578T breast = system: HS 578T breast
SR leukemia = system: SR leukemia
IGROV1 ovarian = system: IGROV1 ovarian
OVCAR-8 ovarian = system: OVCAR-8 ovarian
SNB-75 CNS = system: SNB-75 CNS
HOP-62 NSCLC = system: HOP-62 NSCLC
COLO 205 colon = system: COLO 205 colon
A498 renal = system: A498 renal
HOP-92 NSCLC = system: HOP-92 NSCLC
SK-MEL-28 melanoma = system: SK-MEL-28 melanoma
BT-549 breast = system: BT-549 breast
K-562 leukemia = system: K-562 leukemia
SK-MEL-5 melanoma = system: SK-MEL-5 melanoma
SN12C renal = system: SN12C renal
SF-539 CNS = system: SF-539 CNS
M14 melanoma = system: M14 melanoma
HCT-15 colon = system: HCT-15 colon
PC-3 prostate = system: PC-3 prostate
UACC-62 melanoma = system: UACC-62 melanoma
NCI/ADR-RES ovarian = system: NCI/ADR-RES ovarian
OVCAR-5 ovarian = system: OVCAR-5 ovarian
UO-31 renal = system: UO-31 renal
DU-145 prostate = system: DU-145 prostate
SK-MEL-2 melanoma = system: SK-MEL-2 melanoma
SF-295 CNS = system: SF-295 CNS
MALME-3M melanoma = system: MALME-3M melanoma
NCI-H460 lung = system: NCI-H460 lung

C[C@]12CC[C@@H]3c4ccc(O)cc4CC[C@H]3[C@@H]1CC[C@@H]2NS(=O)(=O)c1cccc(F)c1
GI50 (CAKI-1 renal): 3.4 µM
TGI (CAKI-1 renal): 13.5 µM
GI50 (786-0 renal): 3.38 µM
TGI (786-0 renal): 11.3 µM
GI50 (OVCAR-4 ovarian): 2.72 µM
TGI (OVCAR-4 ovarian): 14.4 µM
GI50 (CCRF-CEM leukemia): 3.28 µM
TGI (CCRF-CEM leukemia): 18.6 µM
GI50 (UACC-257 melanoma): 4.07 µM
TGI (UACC-257 melanoma): 16.3 µM
GI50 (HT29 colon): 3.2 µM
TGI (HT29 colon): 10.1 µM
GI50 (RPMI-8226 leukemia): 3.65 µM
TGI (RPMI-8226 leukemia): 19.6 µM
GI50 (A549 NSCLC): 3.13 µM
TGI (A549 NSCLC): 12.6 µM
GI50 (SF-268 CNS): 4.1 µM
TGI (SF-268 CNS): 16 µM
GI50 (MDA-MB-231 breast): 3.64 µM
TGI (MDA-MB-231 breast): 13.6 µM
GI50 (U251 CNS): 3.23 µM
TGI (U251 CNS): 12.1 µM
GI50 (RXF 393 renal): 2.42 µM
TGI (RXF 393 renal): 7.4 µM
GI50 (HCC-2998 colon): 5.27 µM
TGI (HCC-2998 colon): 16.9 µM
GI50 (KM12 colon): 2.34 µM
TGI (KM12 colon): 6.31 µM
GI50 (SW-620 colon): 4.36 µM
TGI (SW-620 colon): 16.8 µM
GI50 (MDA-MB-435): 2.58 µM
TGI (MDA-MB-435): 8.77 µM
GI50 (NCI-H226 lung): 3.72 µM
TGI (NCI-H226 lung): 16.7 µM
GI50 (MOLT-4 leukemia): 2.5 µM
TGI (MOLT-4 leukemia): 9.59 µM
GI50 (MCF7 breast): 3.49 µM
TGI (MCF7 breast): 11 µM
GI50 (NCI-H522 lung): 1.89 µM
TGI (NCI-H522 lung): 7.6 µM
GI50 (ACHN renal): 2.71 µM
TGI (ACHN renal): 8.66 µM
GI50 (LOX IMVI melanoma): 3.09 µM
TGI (LOX IMVI melanoma): 10.8 µM
GI50 (SK-OV-3 ovarian): 6.12 µM
TGI (SK-OV-3 ovarian): 18.2 µM
GI50 (TK-10 renal): 4.14 µM
TGI (TK-10 renal): 13.8 µM
GI50 (SNB-19 CNS): 5.5 µM
TGI (SNB-19 CNS): 18.3 µM
GI50 (NCI-H23 lung): 3.19 µM
TGI (NCI-H23 lung): 13.5 µM
GI50 (HCT-116 colon): 2.63 µM
TGI (HCT-116 colon): 7.33 µM
GI50 (T-47D breast): 3.82 µM
TGI (T-47D breast): 14.8 µM
GI50 (HS 578T breast): 3.88 µM
TGI (HS 578T breast): 19.1 µM
GI50 (SR leukemia): 2.35 µM
TGI (SR leukemia): 8.28 µM
GI50 (IGROV1 ovarian): 5.42 µM
TGI (IGROV1 ovarian): 21.8 µM
GI50 (OVCAR-8 ovarian): 3.84 µM
TGI (OVCAR-8 ovarian): 15.8 µM
GI50 (SNB-75 CNS): 2.93 µM
TGI (SNB-75 CNS): 15 µM
GI50 (HOP-62 NSCLC): 7.38 µM
TGI (HOP-62 NSCLC): 21.9 µM
GI50 (COLO 205 colon): 1.85 µM
TGI (COLO 205 colon): 3.61 µM
GI50 (A498 renal): 2.07 µM
TGI (A498 renal): 6.68 µM
GI50 (HOP-92 NSCLC): 2.43 µM
TGI (HOP-92 NSCLC): 8.64 µM
GI50 (SK-MEL-28 melanoma): 4.81 µM
TGI (SK-MEL-28 melanoma): 17.8 µM
GI50 (BT-549 breast): 2.82 µM
TGI (BT-549 breast): 8.46 µM
GI50 (K-562 leukemia): 3.22 µM
TGI (K-562 leukemia): 15.2 µM
GI50 (SK-MEL-5 melanoma): 1.66 µM
TGI (SK-MEL-5 melanoma): 3.15 µM
GI50 (SN12C renal): 2.35 µM
TGI (SN12C renal): 6.39 µM
GI50 (SF-539 CNS): 3.91 µM
TGI (SF-539 CNS): 14.1 µM
GI50 (M14 melanoma): 3.41 µM
TGI (M14 melanoma): 11.9 µM
GI50 (HCT-15 colon): 2.8 µM
TGI (HCT-15 colon): 11.3 µM
GI50 (PC-3 prostate): 2.96 µM
TGI (PC-3 prostate): 14 µM
GI50 (UACC-62 melanoma): 2.92 µM
TGI (UACC-62 melanoma): 11.3 µM
GI50 (NCI/ADR-RES ovarian): 2.88 µM
TGI (NCI/ADR-RES ovarian): 17 µM
GI50 (OVCAR-5 ovarian): 4.35 µM
TGI (OVCAR-5 ovarian): 16.3 µM
GI50 (UO-31 renal): 2.04 µM
TGI (UO-31 renal): 10.3 µM
GI50 (DU-145 prostate): 5.45 µM
TGI (DU-145 prostate): 17.9 µM
GI50 (SK-MEL-2 melanoma): 2.8 µM
TGI (SK-MEL-2 melanoma): 8.14 µM
GI50 (SF-295 CNS): 3.29 µM
TGI (SF-295 CNS): 11.9 µM
GI50 (MALME-3M melanoma): 2.52 µM
TGI (MALME-3M melanoma): 7.76 µM
GI50 (NCI-H460 lung): 2.72 µM
TGI (NCI-H460 lung): 7.18 µM

— PubChem BioAssay (NCI)
